Assay results from patent US4822606A, “Immunosuppressive synthetic peptides and analogs thereof based on retroviral envelope sequences” (Duke University, priority 1986, dated 1989).
Ends that are not written are not given here.

Assays:
human lymphocytes = assay: Binding of [^125 I]-CKS-17-BSA to cultured human lymphocytes; details: >1000 fold excess of unlabeled BSA conjugate
Protocol: Human mononuclear cells were stimulated for 3 days with PHA, washed free of lectin, cultured for 10 days with 10% of a human IL-2 preparation (electronucleonics) washed and resuspended to 5×10^6 cells/ml in phosphate-buffered-saline, pH 7.2 (PBS) containing 0.1% BSA. […] Binding was terminated and unbounded [^125 I]-CKS-17-BSA removed by rapid (30 sec.) centrifugation of the cells through oil. The cell associated radioactivity was measured using a gamma radiation counter.

[1] = test system: lymphocytes from two non-related individuals; assay: Human two-way mixed leukocyte culture (MLC); format: cell-based; details: 4 experiments, 6-day culture, coupled to BSA
Protocol: Fifty μl of RPMI containing 1×10^5 lymphocytes from each of two non-related individuals was added to each well of a 96 well tissue culture plate. An additional 50 μl of RPMI was added and cultures were incubated at 37° C. in humidified 5% CO2 for 5 days. Fifty μl of RPMI containing either peptide or no addition was added for an additional 24 hr. During the final 4 hr of incubation each well was incubated with 25 μl of RPMI containing 0.5 μCi of ^3 H-thymidine and incorporated radionucleotide determined as above.

[2] = test system: OKT3-stimulated human lymphocytes; assay: Human lymphocyte proliferative response to OKT3 antibody; format: cell-based; details: 5 experiments, 3 days, coupled to BSA
Protocol: One hundred μl of RPMI containing 2×10^5 lymphocytes was added to each well of a 96 well tissue culture plate. Fifty μl of RPMI containing either peptide or no addition was added for 2 hr at 37° C followed by the addition of 50 μl of RPMI containing nothing or Con A (40 μg/ml) or OKT3 antibody (1:1000 dilution). The cultures were incubated for 72 hr at 37° C. in 5% humidified CO2, pulsed with ^3 Hthymidine (0.,5 μCi/well, 4h.) and the incorporated radioactivity determined as described above. The concentration of OKT3 antibody used was previously determined to give 75-100% of a maximal response.

murine CTLL-2 cells = assay: Murine cytotoxic T lymphocyte (CTLL-2) IL-2 dependent proliferation assay; format: cell-based; details: for average inhibition of CTLL-2 proliferation: coupled to BSA, CS-1 5 experiments, CS-3 4 experiments; for effect upon CTLL-2 cell proliferation: peptides coupled to BSA or control BSA, same conditions as the active peptide;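 for all read-outs here: CTLL-2 cells, 4 x 10^3 per well in 96-well plates with RPMI plus 6% FBS, proliferation read as cell-bound radioactivity counted by liquid scintillation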
Protocol: Fifty μ1 of RPMI (6% FBS, 0% IL-2) containing 4 x 10^3 CTLL-2 cells was added to each well of a 96 well tissue culture plate (Falcon, Oxnard, CA). To each well was then added 50 μl of RPMI 1640 containing 3% human IL-2 50 μl of either RPMI or RPMI containing synthetic peptides. Cultures were then incubated for 24 hours at 37° C. in humidified 5% CO^2 Fifty μl of RPMI containing 1 μCi of ^3 H-thymidine (6.7 Ci/mmole; New England Nuclear, Boston, MA) was added to each well for the final 4 hours of cultures. Cells were collected by filtration onto glass fiber filters and incorporated radioactivity determined by liquid scintillation spectrophotometry.

human monocytes = assay: Monocyte superoxide anion (O2^-) release; format: cell-based; details: WGA stimulated, peptide coupled to BSA, mean ± SE
Protocol: Monocytes were aliquoted into 12×75 mm polypropylene tubes (Falcon, Oxnard, CA) and incubated at 37° C. with test materials for twenty minutes. Cytochalasin E was then added to give a final concentration of 5 μg/ml. Ten minutes later 1.5 mg/ml cytochrome C was added followed immediately by wheat germ agglutinin (WGA) to a final concentration of 30 μg/ml (1). Supernatants were removed after 5 min. for determination of O2^- dismutase-inhibitable reduction of cytochrome C (2).

| Substance | inhibition of [^125 I]-CKS-17-BSA binding by excess unlabelled material (human lymphocytes) | average inhibition of human two-way MLC ([1]; 3.75 μM) | average inhibition of human two-way MLC ([1]; 7.5 μM) | average inhibition of human two-way MLC ([1]; 15 μM) | average inhibition of OKT3-stimulated lymphocyte proliferation ([2]; ca. 3.75 μM) | average inhibition of OKT3-stimulated lymphocyte proliferation ([2]; ca. 7.5 μM) | average inhibition of OKT3-stimulated lymphocyte proliferation ([2]; ca. 15 μM) | average inhibition of CTLL-2 proliferation (murine CTLL-2 cells; ca. 3.75 μM) | average inhibition of CTLL-2 proliferation (murine CTLL-2 cells; ca. 7.5 μM) | average inhibition of CTLL-2 proliferation (murine CTLL-2 cells; ca. 15 μM) | O2^- Release (human monocytes; dilution 1:20) | O2^- Release (human monocytes; dilution 1:40) | effect upon CTLL-2 cell proliferation (murine CTLL-2 cells) |
| --- | --- | --- | --- | --- | --- | --- | --- | --- | --- | --- | --- | --- | --- |
| AQNRRGLDLLFWEQGGL [CS-1] | binding could be inhibited | 51.8% | 72.2% | 81.8% | 26.8% | 42.8% | 57.6% | 13.4% | 39.8% | 92.8% | – | – | – |
| Glu-Val-Val-Leu-Glnpartial Asn-Arg-Arg-Gly-Leu-Asp-Leu-Leu (chain 1 EVVLQ; chain 2 NRRGLDLL; printed: Glu-Val-Val-Leu-Gln; printed: Asn-Arg-Arg-Gly-Leu-Asp-Leu-Leu) [SP-9] | – | – | – | – | – | – | – | – | – | – | 10.6 ± 0.3 nmoles/5 minues/1.2 × 10^6 mon | 12.4 ± 0.5 nmoles/5 minues/1.2 × 10^6 mon | little or no effect |
| LQARILAVERYLKDQQL [CS-3] | binding could be inhibited | 44.5% | 74.0% | 88.5% | 23.2% | 33.4% | 40.4% | 3.5% | 23.2% | 81.8% | – | – | – |
| PPFSLSPVPTL [SP-70] | – | – | – | – | – | – | – | – | – | – | 10.7 ± 0.5 nmoles/5 minues/1.2 × 10^6 mon | 11.6 ± 0.2 nmoles/5 minues/1.2 × 10^6 mon | little or no effect |
| PVMHPHGAPPNHRPWGMKNLQAIK [SP-16] | – | – | – | – | – | – | – | – | – | – | 9.8 ± 0.2 nmoles/5 minues/1.2 × 10^6 mon | 12.4 ± 0.6 nmoles/5 minues/1.2 × 10^6 mon | little or no effect |
| QYAAQNRRGLDLL [SP-74] | – | – | – | – | – | – | – | – | – | – | 10.7 ± 0.4 nmoles/5 minues/1.2 × 10^6 mon | 12.5 ± 0.5 nmoles/5 minues/1.2 × 10^6 mon | little or no effect |
